Where “and” joins values, the source holds several entries; their conditions need not be identical. Equal values may be shown once. Read-outs that look alike come from different tables or passages of the source.
Key:
HEK293T cells [1] = assay: Cytotoxicity: growth-rate (change in confluence over 24 h); details: 1 µM, normalized to 0.1% DMSO control, single replicates (n=1...)
MAPK1 = target: T1, MAPK1 (Homo sapiens, UniProt P28482); assay: Liability panel screening by DSF: MAPK1; format: binding; details: read-out: Mean ΔTM MAPK1
T1 construct: made in house
Experimental: (§1) Reference ligands are listed in the methods section.
(§2) In-house produced recombinantly expressed proteins[62] of the liability panel targets were diluted in a buffer containing 10 mM HEPES (pH 7.5) and 500 mM NaCl to a concentration of 2 µM. SYPRO Orange (Invitrogen, Carlsbad, California, USA; #S6650) as a fluorescence probe was added at a 1:1000 dilution to the proteins. […] Temperature-dependent unfolding profiles were measured on a QuantStudio™ 5 real-time PCR machine (Thermo Fisher Scientific, Waltham, Massachusetts, USA; #A28140). […] The temperature was increased 3 °C per minute to a maximum temperature of 85 °C. Experiments were run as technical duplicates. […] Data were analyzed with the internal Thermal Shift Software (version 1.4, Thermo Fisher Scientific) using the Boltzmann equitation to determine the inflection point of the transition curve. Differences in melting temperature are given as ∆Tm in K. […]
(§3) scanning fluorimetry (DSF).
(§4) a concentration of 20 µM.

FGFR3 = target: T2, FGFR3 (Homo sapiens, UniProt P22607); assay: Liability panel screening by DSF: FGFR3; format: binding; details: read-out: Mean ΔTM FGFR3
T2 construct: made in house
Experimental: as §1, §2, §3, §4

BRD4 = target: T3, BRD4 (Homo sapiens, UniProt O60885); assay: Liability panel screening by DSF: BRD4; format: binding; details: read-out: Mean ΔTM BRD4
T3 construct: This panel comprised ten highly ligandable kinases and bromodomains; made in house
Experimental: as §1, §2, §3, §4

GSK3B = target: T4, GSK3B (Homo sapiens, UniProt P49841); assay: Liability panel screening by DSF: GSK3B; format: binding; details: read-out: Mean ΔTM GSK3B
T4 construct: made in house

ABL1 = target: T5, ABL1 (Homo sapiens, UniProt P00519); assay: Liability panel screening by DSF: ABL1; format: binding; details: read-out: Mean ΔTM ABL1
T5 construct: made in house
Experimental: as §1, §2, §3, §4

[2] = system: ATF6 activity in Hela ATF6 reporter cells; assay: Endoplasmic reticulum stress assay (ATF6 Renilla luciferase reporter, tunicamycin); format: cell-based; details: for ATF6 activity (tunicamycin-induced endoplasmic reticulum stress): Hela ATF6 reporter cells, tunicamycin 100 ng/mL, 18 h, compounds at recommended concentrations, n = 5; for activity at 1 µM: Homo sapiens, HeLa, single replicates n=1 to n=5, read-out: ER stress [rel. ATF6 activity]
In short: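 HeLa ATF6 Renilla reporter cells were pretreated 4 h with compounds in 0.1% DMSO, then stimulated with tunicamycin (100 ng/mL) for 18 h. Renilla luminescence (DualGlo) was normalized to 0.1% DMSO control; five independent experiments.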

CDK2 = target: T6, CDK2 (Homo sapiens, UniProt P24941); assay: Liability panel screening by DSF: CDK2; format: binding; details: read-out: Mean ΔTM CDK2
T6 construct: made in house
Experimental: as §1, §2, §3, §4

BRPF1 = target: T7, BRPF1 (Homo sapiens, UniProt P55201); assay: Liability panel screening by DSF: BRPF1; format: binding; details: read-out: Mean ΔTM BRPF1
T7 construct: This panel comprised ten highly ligandable kinases and bromodomains; made in house
T7 sequence (P55201 628-732 limits assumed): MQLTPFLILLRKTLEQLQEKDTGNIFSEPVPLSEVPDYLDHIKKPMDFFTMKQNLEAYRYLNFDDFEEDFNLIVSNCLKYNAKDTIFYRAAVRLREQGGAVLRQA
Experimental: as §1, §2, §3, §4

AURKA = target: T8, AURKA (Homo sapiens, UniProt O14965); assay: Liability panel screening by DSF: AURKA; format: binding; details: read-out: Mean ΔTM AURKA
T8 construct: made in house
T8 sequence (O14965 1-403): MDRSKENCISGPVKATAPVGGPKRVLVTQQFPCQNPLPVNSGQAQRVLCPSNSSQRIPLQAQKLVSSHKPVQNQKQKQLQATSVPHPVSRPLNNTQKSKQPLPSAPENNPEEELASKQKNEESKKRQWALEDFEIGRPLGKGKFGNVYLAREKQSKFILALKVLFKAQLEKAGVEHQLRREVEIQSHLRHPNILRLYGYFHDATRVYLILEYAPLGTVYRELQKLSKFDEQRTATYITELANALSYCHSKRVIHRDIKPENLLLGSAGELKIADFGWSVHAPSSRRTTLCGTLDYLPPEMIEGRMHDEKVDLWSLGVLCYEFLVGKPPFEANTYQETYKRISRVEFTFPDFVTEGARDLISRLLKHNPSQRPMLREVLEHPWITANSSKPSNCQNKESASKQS
Experimental: as §1, §2, §3, §4

CSNK1D = target: T9, CSNK1D (Homo sapiens, UniProt P48730); assay: Liability panel screening by DSF: CSNK1D; format: binding; details: read-out: Mean ΔTM CSNK1D
T9 construct: made in house
Experimental: as §1, §2, §3, §4

HEK293T cells [3] = assay: Cytotoxicity: necrosis induction (red fluorescent dye for permeable plasma membranes); format: cell-based; details: 1 µM, 24 h, necrotic cell count normalized to 0.1% DMSO, single replicates;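 further: compounds applied in DMEM high glucose with 0.1% FCS and 0.1% DMSO, necrotic HEK293T cells counted by red staining of cells whose plasma membranes had become permeable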
TRIM24 = target: T10, TRIM24 (Homo sapiens, UniProt O15164); assay: Liability panel screening by DSF: TRIM24; format: binding; details: read-out: Mean ΔTM TRIM24
T10 construct: This panel comprised ten highly ligandable kinases and bromodomains; made in house
T10 sequence (O15164 899-1004 limits assumed): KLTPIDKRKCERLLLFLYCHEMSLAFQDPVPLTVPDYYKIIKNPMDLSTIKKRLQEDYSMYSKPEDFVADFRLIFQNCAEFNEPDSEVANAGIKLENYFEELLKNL
Experimental: as §1, §2, §3, §4

[4] = system: NF-κB activity in HEK293 NF-κB reporter cells; assay: NF-kB activity assay (GFP reporter, ionomycin/PMA); format: cell-based; details: for Mean NFκB response: n=3
In short: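 HEK293 NF-κB GFP reporter cells given compound in 0.1% DMSO for 4 h, then stimulated with ionomycin 100 ng/mL plus PMA 10 ng/mL. Imaged every 90 min over 24 h; GFP-positive cell count normalized to confluence, three independent biological replicates.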

HEK293T cells [5] = assay: Cytotoxicity: apoptosis induction (caspase-3/7 DEVD fluorogenic DNA dye); details: 1 µM; HEK293T, 24 h; apoptotic cell count normalized to 0.1% DMSO; single replicates
HEK293T cells [6] = assay: Cytotoxicity: metabolic activity (WST-8 / CCK-8 assay); details: 1 µM; HEK293T, 24 h; WST-8; normalized to 0.1% DMSO; single replicates

T4 sequence (P49841 whole entry, species assumed): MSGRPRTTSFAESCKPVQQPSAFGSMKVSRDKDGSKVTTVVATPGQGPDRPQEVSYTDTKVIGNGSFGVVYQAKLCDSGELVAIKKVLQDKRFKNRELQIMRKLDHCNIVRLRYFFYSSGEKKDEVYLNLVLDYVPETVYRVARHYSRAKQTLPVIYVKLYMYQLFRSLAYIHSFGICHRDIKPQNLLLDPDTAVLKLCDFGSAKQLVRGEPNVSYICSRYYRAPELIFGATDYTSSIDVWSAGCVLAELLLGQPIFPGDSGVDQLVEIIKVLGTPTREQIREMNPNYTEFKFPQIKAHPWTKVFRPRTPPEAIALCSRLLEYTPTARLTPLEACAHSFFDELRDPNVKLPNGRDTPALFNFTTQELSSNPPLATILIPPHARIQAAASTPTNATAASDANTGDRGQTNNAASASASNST
T5 sequence (P00519 whole entry, species assumed): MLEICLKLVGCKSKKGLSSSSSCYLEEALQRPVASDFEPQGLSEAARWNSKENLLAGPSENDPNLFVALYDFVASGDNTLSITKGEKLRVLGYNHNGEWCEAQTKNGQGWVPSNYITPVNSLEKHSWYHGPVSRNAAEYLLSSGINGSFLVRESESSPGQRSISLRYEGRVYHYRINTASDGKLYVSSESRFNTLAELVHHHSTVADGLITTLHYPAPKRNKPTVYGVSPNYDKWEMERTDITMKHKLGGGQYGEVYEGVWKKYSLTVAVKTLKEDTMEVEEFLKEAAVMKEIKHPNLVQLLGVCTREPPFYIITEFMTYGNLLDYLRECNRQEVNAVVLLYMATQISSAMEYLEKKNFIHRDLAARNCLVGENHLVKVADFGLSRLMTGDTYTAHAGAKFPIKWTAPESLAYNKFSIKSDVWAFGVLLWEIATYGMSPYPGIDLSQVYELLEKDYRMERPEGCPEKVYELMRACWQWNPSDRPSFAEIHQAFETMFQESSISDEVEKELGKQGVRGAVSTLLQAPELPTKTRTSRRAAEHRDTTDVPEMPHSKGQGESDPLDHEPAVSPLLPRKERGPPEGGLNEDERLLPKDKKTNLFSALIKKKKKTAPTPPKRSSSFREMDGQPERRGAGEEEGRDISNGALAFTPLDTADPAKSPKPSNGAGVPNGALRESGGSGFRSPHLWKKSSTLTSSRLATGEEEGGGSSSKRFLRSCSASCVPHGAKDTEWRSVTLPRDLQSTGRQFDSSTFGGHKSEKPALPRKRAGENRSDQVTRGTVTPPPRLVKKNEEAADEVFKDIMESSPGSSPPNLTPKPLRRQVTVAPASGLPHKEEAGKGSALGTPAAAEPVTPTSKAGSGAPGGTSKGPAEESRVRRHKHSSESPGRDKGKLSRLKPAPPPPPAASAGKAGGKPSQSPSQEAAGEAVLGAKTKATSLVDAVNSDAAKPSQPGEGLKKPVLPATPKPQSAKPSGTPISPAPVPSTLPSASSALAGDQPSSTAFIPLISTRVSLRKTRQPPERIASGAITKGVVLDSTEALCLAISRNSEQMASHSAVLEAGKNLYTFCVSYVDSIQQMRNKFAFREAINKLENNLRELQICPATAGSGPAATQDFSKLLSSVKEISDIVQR
T1 sequence (P28482 whole entry, species assumed): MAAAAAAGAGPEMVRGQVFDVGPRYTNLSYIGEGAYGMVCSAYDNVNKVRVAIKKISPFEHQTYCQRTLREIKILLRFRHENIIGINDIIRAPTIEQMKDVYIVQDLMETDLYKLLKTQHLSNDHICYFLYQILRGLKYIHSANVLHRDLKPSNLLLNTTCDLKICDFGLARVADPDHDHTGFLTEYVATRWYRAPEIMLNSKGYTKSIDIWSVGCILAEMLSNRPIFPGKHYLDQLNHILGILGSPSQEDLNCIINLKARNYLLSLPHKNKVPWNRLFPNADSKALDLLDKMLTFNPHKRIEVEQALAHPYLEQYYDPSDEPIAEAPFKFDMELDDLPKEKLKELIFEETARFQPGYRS
T2 sequence (P22607 23-806, species assumed): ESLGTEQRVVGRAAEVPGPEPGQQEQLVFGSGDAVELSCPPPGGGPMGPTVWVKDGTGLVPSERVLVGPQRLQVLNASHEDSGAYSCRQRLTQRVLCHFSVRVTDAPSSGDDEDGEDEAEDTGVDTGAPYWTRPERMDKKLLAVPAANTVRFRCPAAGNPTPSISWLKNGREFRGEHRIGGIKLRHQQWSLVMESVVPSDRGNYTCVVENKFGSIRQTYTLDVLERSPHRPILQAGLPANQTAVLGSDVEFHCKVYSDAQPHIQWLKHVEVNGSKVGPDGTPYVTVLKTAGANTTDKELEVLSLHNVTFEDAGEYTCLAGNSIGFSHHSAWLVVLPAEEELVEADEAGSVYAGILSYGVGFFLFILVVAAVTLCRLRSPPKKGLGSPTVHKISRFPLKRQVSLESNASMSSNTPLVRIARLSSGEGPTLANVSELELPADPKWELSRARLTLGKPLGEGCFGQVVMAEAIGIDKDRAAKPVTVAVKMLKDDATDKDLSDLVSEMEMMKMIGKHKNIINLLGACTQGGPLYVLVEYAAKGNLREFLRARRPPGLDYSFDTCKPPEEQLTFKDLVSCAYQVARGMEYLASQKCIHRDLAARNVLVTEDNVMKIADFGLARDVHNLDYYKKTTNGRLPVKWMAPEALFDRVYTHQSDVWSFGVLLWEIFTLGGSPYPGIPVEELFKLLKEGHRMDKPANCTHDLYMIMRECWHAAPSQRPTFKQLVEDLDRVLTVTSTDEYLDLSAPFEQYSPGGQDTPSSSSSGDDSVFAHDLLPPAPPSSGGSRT
T9 sequence (P48730 whole entry, species assumed): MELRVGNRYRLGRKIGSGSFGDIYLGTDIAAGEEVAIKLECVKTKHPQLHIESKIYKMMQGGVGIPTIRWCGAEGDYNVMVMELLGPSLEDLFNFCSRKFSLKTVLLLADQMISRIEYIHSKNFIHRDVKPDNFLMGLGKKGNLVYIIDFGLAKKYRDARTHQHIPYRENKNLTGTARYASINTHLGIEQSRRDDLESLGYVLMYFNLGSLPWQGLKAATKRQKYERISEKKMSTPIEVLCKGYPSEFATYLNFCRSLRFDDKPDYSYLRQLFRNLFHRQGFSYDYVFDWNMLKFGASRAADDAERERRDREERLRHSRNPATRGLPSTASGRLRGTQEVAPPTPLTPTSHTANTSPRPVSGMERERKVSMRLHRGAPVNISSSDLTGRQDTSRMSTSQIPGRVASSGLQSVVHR

Compound	Growth rate [GR] (HEK293T cells [1])	ATF6 activity (tunicamycin-induced endoplasmic reticulum stress) [2]	activity at 1 µM [2] [%]	Necrosis induction [NI] (HEK293T cells [3])	Mean NFκB response ([4]; 1 µM, 1,5 h)	Mean NFκB response ([4]; 1 µM, 4,5 h)	Mean NFκB response ([4]; 1 µM, 7,5 h)	Mean NFκB response ([4]; 1 µM, 10,5 h)	Mean NFκB response ([4]; 1 µM, 13,5 h)	Mean NFκB response ([4]; 1 µM, 16,6 h)	Mean NFκB response ([4]; 1 µM, 19,5 h)	Mean NFκB response ([4]; 1 µM, 22,5 h)	Mean NFκB response ([4]; 1 µM, 3 h)	Mean NFκB response ([4]; 1 µM, 6 h)	Mean NFκB response ([4]; 1 µM, 9 h)	Mean NFκB response ([4]; 1 µM, 12 h)	Mean NFκB response ([4]; 1 µM, 15 h)	Mean NFκB response ([4]; 1 µM, 18 h)	Mean NFκB response ([4]; 1 µM, 21 h)	Mean NFκB response ([4]; 1 µM, 24 h)	other results
O=S(=O)(Cc1ccccc1)Nc1ccc(-c2ccc3c(cnn3-c3ccc(F)cc3)c2)c(C(F)(F)F)c1 [GSK9027]	0.54 and 0.80 and 0.72 and 0.98 and 0.70 and 0.66 and 0.84 and 1.89 and 2.05 and 4.10	Consistently weaker ATF6 activity	76	0.93 and 0.78 and 0.76 and 1.05	2917.80 GFP+-cells/confluence ∙ 1000	3437.70 GFP+-cells/confluence ∙ 1000	4957.90 GFP+-cells/confluence ∙ 1000	8098.89 GFP+-cells/confluence ∙ 1000	11113.03 GFP+-cells/confluence ∙ 1000	13521.21 GFP+-cells/confluence ∙ 1000	14898.72 GFP+-cells/confluence ∙ 1000	15985.14 GFP+-cells/confluence ∙ 1000	2869.62 GFP+-cells/confluence ∙ 1000	4105.89 GFP+-cells/confluence ∙ 1000	6294.49 GFP+-cells/confluence ∙ 1000	9593.56 GFP+-cells/confluence ∙ 1000	12593.25 GFP+-cells/confluence ∙ 1000	14186.97 GFP+-cells/confluence ∙ 1000	15313.70 GFP+-cells/confluence ∙ 1000	16630.14 GFP+-cells/confluence ∙ 1000	ΔTm at 20 µM (MAPK1): -2.07 °C; ΔTm at 20 µM (FGFR3): -0.29 °C; ΔTm at 20 µM (BRD4): 1.58 °C; ΔTm at 20 µM (GSK3B): 1.24 °C; ΔTm at 20 µM (ABL1): 1.8 °C; ΔTm at 20 µM (CDK2): 0.1 °C; ΔTm at 20 µM (BRPF1): 1.21 °C; ΔTm at 20 µM (AURKA): 1.2 °C; ΔTm at 20 µM (CSNK1D): -1.92 °C; ΔTm at 20 µM (TRIM24): 1.36 °C; NF-κB activity (inflammatory response to ionomycin/PMA) ([4]; HEK293 NF-κB reporter cells, compounds at recommended concentrations, imaged over 24 h, n = 3): consistently delayed and strongly diminished NF-κB activity; Apoptosis induction [AI] (HEK293T cells [5]): 0.65 and 1.04 and 0.83 and 0.94 and 0.36 and 0.86; Metabolic activity [MA] (HEK293T cells [6]): 1.03 and 1.01 (3×) and 0.96 and 1.00 and 1.18 and 1.15
Oc1ccc(-c2nc3cc(O)cc(Br)c3o2)cc1 [WAY200070]	0.70 and -0.18 and 0.97 and 1.02 and 1.09 and 1.00 and 1.07 and 0.46 and 0.96 and -0.95	failed to reduce ATF6 activity	92	0.70 and 0.57 and 0.78 and 0.74	2392.96 GFP+-cells/confluence ∙ 1000	3166.63 GFP+-cells/confluence ∙ 1000	7710.70 GFP+-cells/confluence ∙ 1000	19182.75 GFP+-cells/confluence ∙ 1000	27828.42 GFP+-cells/confluence ∙ 1000	34347.41 GFP+-cells/confluence ∙ 1000	38770.94 GFP+-cells/confluence ∙ 1000	41785.25 GFP+-cells/confluence ∙ 1000	2570.72 GFP+-cells/confluence ∙ 1000	4284.26 GFP+-cells/confluence ∙ 1000	13724.58 GFP+-cells/confluence ∙ 1000	23519.76 GFP+-cells/confluence ∙ 1000	31227.07 GFP+-cells/confluence ∙ 1000	36753.27 GFP+-cells/confluence ∙ 1000	40136.06 GFP+-cells/confluence ∙ 1000	43256.26 GFP+-cells/confluence ∙ 1000	ΔTm at 20 µM (MAPK1; DSF, 20 µM, n=2): -0.9 °C; ΔTm at 20 µM (FGFR3; DSF, 20 µM, n=2): 1.16 °C; ΔTm at 20 µM (BRD4; DSF, 20 µM, n=2): 0.55 °C; ΔTm at 20 µM (GSK3B; DSF, 20 µM, n=2): 3.58 °C; ΔTm at 20 µM (ABL1; DSF, 20 µM, n=2): 2.05 °C; ΔTm at 20 µM (CDK2; DSF, 20 µM, n=2): 1.93 °C; ΔTm at 20 µM (BRPF1; DSF, 20 µM, n=2): 2.12 °C; ΔTm at 20 µM (AURKA; DSF, 20 µM, n=2): 0.19 °C; ΔTm at 20 µM (CSNK1D; DSF, 20 µM, n=2): 2.57 °C; ΔTm at 20 µM (TRIM24; DSF, 20 µM, n=2): 0.24 °C; Apoptosis induction [AI] (HEK293T cells [5]): 0.59 and 0.50 and 0.47 and 0.71 and 1.22 and 1.35; Metabolic activity [MA] (HEK293T cells [6]): 1.01 (2×) and 0.90 and 0.92 and 0.96 and 0.97 and 1.05 and 1.00
